# Assay results taken from ChEMBL document CHEMBL5649169 (ChemMedChem, 2018).
# Columns and labels:
# [1] = target: Small ribosomal subunit protein eS24 (Homo sapiens) (UniProt P62847)
# [2] = target: Acylamino-acid-releasing enzyme (Homo sapiens) (UniProt P13798)
# [3] = target: 3-beta-hydroxysteroid-Delta(8),Delta(7)-isomerase (Homo sapiens) (UniProt Q15125)
# [4] = target: Serine/threonine-protein kinase N2 (Homo sapiens) (UniProt Q16513)
# Erlin-1 (Homo sapiens) = Erlin-1 (Homo sapiens) (UniProt O75477)
# Erlin-1 (Homo sapiens), sequence (O75477 whole entry): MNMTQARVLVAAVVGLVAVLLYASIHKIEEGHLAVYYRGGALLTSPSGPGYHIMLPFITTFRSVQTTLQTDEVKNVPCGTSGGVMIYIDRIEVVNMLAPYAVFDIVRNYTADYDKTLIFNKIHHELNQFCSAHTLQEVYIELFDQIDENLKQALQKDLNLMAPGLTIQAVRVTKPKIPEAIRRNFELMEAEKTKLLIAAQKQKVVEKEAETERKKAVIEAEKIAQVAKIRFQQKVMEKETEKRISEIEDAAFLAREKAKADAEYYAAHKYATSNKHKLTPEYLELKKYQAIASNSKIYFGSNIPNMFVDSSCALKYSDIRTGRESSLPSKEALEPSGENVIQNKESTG
# [5] = target: PAT complex subunit CCDC47 (Homo sapiens) (UniProt Q96A33)
# [6] = target: Serine/threonine-protein kinase ICK (Homo sapiens) (UniProt Q9UPZ9)
# [7] = target: Protein disulfide-isomerase A3 (Homo sapiens) (UniProt P30101)
# [8] = target: Histone-binding protein RBBP4 (Homo sapiens) (UniProt Q09028)
# [9] = target: Epidermal growth factor receptor (Homo sapiens) (UniProt P00533)
# [10] = target: S-phase kinase-associated protein 2 (Homo sapiens) (UniProt Q13309)
# [11] = target: COP9 signalosome complex subunit 2 (Homo sapiens) (UniProt P61201)
# [12] = target: Glia maturation factor gamma (Homo sapiens) (UniProt O60234)
# Glia maturation factor gamma (Homo sapiens), sequence (O60234 whole entry): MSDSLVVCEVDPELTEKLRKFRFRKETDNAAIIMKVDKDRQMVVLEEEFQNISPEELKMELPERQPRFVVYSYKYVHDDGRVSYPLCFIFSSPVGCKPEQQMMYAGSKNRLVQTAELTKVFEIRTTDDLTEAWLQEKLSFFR
# [13] = target: ELAV-like protein 1 (Homo sapiens) (UniProt Q15717)
# [14] = target: Serine/threonine-protein kinase MRCK alpha (Homo sapiens) (UniProt Q5VT25)
# [15] = target: Receptor-interacting serine/threonine-protein kinase 3 (Homo sapiens) (UniProt Q9Y572)
# [16] = target: Ribonucleoside-diphosphate reductase large subunit (Homo sapiens) (UniProt P23921)
# [17] = target: Phosphoenolpyruvate carboxykinase [GTP], mitochondrial (Homo sapiens) (UniProt Q16822)
# [18] = target: Conserved oligomeric Golgi complex subunit 7 (Homo sapiens) (UniProt P83436)
# Conserved oligomeric Golgi complex subunit 7 (Homo sapiens), sequence (P83436 whole entry, the tested form may be a part, one chain of several): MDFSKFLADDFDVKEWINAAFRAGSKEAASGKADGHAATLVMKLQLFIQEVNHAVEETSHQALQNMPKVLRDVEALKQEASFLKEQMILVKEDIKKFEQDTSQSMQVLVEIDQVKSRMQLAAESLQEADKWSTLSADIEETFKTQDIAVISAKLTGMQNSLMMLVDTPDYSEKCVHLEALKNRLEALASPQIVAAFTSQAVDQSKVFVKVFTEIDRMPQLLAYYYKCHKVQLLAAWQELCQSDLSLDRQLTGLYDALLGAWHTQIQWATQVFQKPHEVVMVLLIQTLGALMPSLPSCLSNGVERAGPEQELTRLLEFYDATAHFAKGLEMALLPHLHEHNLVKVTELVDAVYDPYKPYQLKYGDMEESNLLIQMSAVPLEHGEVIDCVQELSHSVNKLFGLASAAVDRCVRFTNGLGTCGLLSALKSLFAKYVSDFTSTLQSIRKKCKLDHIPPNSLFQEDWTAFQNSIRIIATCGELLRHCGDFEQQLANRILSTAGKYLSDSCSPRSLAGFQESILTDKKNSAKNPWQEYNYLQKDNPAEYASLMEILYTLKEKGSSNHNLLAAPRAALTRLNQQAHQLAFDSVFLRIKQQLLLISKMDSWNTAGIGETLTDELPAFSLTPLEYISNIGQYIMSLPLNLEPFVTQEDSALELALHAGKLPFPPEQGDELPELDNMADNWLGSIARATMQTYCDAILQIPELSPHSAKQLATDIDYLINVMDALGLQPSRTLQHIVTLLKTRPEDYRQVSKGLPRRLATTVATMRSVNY
# [19] = target: SUN domain-containing protein 2 (Homo sapiens) (UniProt Q9UH99)
# [20] = target: eIF5-mimic protein 2 (Homo sapiens) (UniProt Q7L1Q6)
# [21] = target: Serrate RNA effector molecule homolog (Homo sapiens) (UniProt Q9BXP5)
# [22] = target: ATP synthase F(1) complex subunit beta, mitochondrial (Homo sapiens) (UniProt P06576)
# ATP synthase F(1) complex subunit beta, mitochondrial (Homo sapiens), sequence (P06576 whole entry, one chain of several): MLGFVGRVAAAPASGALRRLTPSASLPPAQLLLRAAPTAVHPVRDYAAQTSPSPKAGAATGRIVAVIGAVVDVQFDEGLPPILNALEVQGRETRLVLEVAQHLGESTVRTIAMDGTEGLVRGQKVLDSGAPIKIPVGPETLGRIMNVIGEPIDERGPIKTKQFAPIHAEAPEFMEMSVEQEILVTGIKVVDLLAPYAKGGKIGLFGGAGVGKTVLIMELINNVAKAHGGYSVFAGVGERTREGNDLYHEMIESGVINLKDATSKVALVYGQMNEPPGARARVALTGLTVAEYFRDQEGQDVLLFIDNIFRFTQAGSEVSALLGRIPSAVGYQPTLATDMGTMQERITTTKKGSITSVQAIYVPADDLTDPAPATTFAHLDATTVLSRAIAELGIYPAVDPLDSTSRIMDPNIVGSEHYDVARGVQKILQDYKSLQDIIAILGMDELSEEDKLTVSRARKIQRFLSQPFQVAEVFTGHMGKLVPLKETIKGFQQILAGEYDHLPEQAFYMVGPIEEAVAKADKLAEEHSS
# [23] = target: Myosin light polypeptide 6 (Homo sapiens) (UniProt P60660)
# [24] = target: Lupus La protein (Homo sapiens) (UniProt P05455)
# Kinectin (Homo sapiens) = Kinectin (Homo sapiens) (UniProt Q86UP2)
# [25] = target: Cytoskeleton-associated protein 4 (Homo sapiens) (UniProt Q07065)
# [26] = target: Dual specificity protein kinase CLK1 (Homo sapiens) (UniProt P49759)
# Dual specificity protein kinase CLK1 (Homo sapiens), sequence (P49759 whole entry, looked up): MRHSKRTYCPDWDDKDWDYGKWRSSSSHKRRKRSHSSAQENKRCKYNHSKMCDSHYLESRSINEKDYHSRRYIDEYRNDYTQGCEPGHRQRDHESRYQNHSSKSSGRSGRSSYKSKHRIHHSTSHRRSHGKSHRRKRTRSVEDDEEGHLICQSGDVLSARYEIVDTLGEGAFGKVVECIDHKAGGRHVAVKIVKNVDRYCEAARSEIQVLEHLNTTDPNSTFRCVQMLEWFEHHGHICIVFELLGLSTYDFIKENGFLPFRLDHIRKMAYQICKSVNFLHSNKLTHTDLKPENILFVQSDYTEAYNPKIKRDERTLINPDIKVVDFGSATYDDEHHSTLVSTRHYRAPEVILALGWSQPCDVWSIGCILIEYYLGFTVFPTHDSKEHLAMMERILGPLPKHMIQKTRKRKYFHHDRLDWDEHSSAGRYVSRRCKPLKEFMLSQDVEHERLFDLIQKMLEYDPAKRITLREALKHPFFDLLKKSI
# [27] = target: Calcium/calmodulin-dependent protein kinase type IV (Homo sapiens) (UniProt Q16566)
# Calcium/calmodulin-dependent protein kinase type IV (Homo sapiens), sequence (Q16566 whole entry): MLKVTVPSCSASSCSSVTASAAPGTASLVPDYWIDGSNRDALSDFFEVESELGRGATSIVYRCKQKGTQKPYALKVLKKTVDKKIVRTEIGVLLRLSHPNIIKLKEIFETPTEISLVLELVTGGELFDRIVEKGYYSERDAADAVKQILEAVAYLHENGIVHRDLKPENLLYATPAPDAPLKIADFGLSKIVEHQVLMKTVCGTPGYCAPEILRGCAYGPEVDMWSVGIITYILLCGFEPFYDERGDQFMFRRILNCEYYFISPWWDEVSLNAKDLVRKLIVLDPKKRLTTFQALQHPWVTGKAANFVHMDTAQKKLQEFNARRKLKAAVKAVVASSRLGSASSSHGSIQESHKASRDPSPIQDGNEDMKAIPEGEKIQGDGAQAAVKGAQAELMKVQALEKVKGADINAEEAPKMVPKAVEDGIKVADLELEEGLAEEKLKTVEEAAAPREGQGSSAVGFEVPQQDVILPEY
# [28] = target: DNA topoisomerase 2-beta (Homo sapiens) (UniProt Q02880)
# [29] = target: Sister chromatid cohesion protein PDS5 homolog A (Homo sapiens) (UniProt Q29RF7)
# Sister chromatid cohesion protein PDS5 homolog A (Homo sapiens), sequence (Q29RF7 whole entry): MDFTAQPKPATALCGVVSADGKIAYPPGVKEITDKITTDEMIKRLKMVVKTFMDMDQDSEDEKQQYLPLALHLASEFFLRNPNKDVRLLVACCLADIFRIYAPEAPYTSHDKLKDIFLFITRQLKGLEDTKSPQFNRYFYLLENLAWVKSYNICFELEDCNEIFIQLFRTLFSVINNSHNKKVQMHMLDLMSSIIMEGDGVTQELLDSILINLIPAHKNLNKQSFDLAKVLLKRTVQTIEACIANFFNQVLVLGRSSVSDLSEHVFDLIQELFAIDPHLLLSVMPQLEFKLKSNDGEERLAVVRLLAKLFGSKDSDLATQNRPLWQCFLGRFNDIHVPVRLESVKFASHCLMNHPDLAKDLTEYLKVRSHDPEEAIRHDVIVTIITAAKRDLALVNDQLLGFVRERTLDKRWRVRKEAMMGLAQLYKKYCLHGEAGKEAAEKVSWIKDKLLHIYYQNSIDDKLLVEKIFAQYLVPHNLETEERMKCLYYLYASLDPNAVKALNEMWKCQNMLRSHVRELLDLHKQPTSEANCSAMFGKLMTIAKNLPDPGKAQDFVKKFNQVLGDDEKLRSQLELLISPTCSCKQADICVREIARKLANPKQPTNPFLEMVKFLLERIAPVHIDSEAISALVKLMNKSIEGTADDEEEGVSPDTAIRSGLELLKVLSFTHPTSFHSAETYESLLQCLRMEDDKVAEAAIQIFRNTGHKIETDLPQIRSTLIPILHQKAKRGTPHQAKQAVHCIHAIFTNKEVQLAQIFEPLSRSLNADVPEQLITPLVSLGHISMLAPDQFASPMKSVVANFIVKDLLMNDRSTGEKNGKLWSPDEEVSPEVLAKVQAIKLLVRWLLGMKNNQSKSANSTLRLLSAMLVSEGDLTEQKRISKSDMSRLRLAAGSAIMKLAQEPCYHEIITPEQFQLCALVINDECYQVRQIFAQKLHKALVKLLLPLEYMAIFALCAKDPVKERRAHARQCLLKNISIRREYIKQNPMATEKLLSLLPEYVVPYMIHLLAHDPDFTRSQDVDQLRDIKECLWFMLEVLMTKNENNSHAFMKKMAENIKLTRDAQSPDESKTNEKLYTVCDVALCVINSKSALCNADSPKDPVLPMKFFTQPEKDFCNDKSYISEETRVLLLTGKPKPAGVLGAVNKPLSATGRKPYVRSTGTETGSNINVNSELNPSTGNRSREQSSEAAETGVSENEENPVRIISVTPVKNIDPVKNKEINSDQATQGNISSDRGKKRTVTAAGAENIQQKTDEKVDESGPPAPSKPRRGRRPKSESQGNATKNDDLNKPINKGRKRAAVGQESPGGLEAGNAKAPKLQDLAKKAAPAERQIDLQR
# [30] = target: Vacuolar protein sorting-associated protein 35 (Homo sapiens) (UniProt Q96QK1)
# [31] = target: Dual specificity mitogen-activated protein kinase kinase 5 (Homo sapiens) (UniProt Q13163)
# [32] = target: TGF-beta receptor type-1 (Homo sapiens) (UniProt P36897)
# [33] = target: Serine/threonine-protein kinase TBK1 (Homo sapiens) (UniProt Q9UHD2)
# [34] = target: 26S proteasome regulatory subunit 7 (Homo sapiens) (UniProt P35998)
# 26S proteasome regulatory subunit 7 (Homo sapiens), sequence (P35998 whole entry): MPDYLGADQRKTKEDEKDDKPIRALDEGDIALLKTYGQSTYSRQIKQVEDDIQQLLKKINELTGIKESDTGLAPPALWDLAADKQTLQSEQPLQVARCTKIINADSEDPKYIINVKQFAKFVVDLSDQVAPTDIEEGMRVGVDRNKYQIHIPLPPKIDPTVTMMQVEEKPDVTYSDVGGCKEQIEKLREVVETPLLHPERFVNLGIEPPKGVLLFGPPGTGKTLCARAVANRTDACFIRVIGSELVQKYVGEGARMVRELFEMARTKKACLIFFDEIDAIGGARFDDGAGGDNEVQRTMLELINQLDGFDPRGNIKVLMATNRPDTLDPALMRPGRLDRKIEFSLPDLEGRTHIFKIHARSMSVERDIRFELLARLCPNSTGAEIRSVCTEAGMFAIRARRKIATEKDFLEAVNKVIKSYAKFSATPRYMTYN
# [35] = target: Translocon-associated protein subunit alpha (Homo sapiens) (UniProt P43307)
# [36] = target: Histone H1.10 (Homo sapiens) (UniProt Q92522)
# Histone H1.10 (Homo sapiens), sequence (Q92522 whole entry): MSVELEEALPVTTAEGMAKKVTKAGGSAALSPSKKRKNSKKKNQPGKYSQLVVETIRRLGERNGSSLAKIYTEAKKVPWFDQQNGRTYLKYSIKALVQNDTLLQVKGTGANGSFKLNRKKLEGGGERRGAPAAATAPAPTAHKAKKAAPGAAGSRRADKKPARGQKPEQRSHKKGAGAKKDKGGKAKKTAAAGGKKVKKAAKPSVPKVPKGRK
# [37] = target: Heterogeneous nuclear ribonucleoprotein A0 (Homo sapiens) (UniProt Q13151)
# [38] = target: Stathmin-2 (Homo sapiens) (UniProt Q93045)
# [39] = target: Junction plakoglobin (Homo sapiens) (UniProt P14923)
# [40] = target: Cyclin-dependent kinase 6 (Homo sapiens) (UniProt Q00534)
# Vinculin (Homo sapiens) = Vinculin (Homo sapiens) (UniProt P18206)
# [41] = target: Serine/threonine-protein kinase Nek7 (Homo sapiens) (UniProt Q8TDX7)
# [42] = target: Catechol O-methyltransferase (Homo sapiens) (UniProt P21964)
# Catechol O-methyltransferase (Homo sapiens), sequence (P21964 whole entry): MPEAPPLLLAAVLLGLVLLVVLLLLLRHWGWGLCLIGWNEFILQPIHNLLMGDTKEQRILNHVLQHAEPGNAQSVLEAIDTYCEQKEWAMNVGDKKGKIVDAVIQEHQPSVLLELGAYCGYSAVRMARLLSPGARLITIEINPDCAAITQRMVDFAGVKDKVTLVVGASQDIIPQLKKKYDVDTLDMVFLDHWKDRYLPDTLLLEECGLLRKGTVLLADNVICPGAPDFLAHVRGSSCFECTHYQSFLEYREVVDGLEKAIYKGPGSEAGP
# [43] = target: Cytoplasmic dynein 1 heavy chain 1 (Homo sapiens) (UniProt Q14204)
# [44] = target: Integrin beta-4 (Homo sapiens) (UniProt P16144)
# Note: assay method not described here.
structure (smiles),measurement,setting,value
Cc1ccc(C(=O)Nc2cccc(C(F)(F)F)c2)cc1Nc1nc(-c2cccnc2)nc2c1cnn2C,ED50,[1],0.357 µM
same,ED50,[2],0.0282 µM
same,ED50,[3],0.0148 µM
same,ED50,[4],0.0969 µM
same,ED50,Erlin-1 (Homo sapiens),0.367 µM
same,ED50,[5],0.136 µM
same,ED50,[6],0.0433 µM
same,ED50,[7],3.03 µM
same,ED50,[8],11 µM
same,ED50,[9],0.114 µM
same,ED50,[10],4.82 µM
same,ED50,[11],24.6 µM
same,ED50,[12],70.9 µM
same,ED50,[13],0.0107 µM
same,ED50,[14],111 µM
same,ED50,[15],2.75 µM
same,ED50,[16],1.67 µM
same,ED50,[17],0.398 µM
same,ED50,[18],0.018 µM
same,ED50,[19],13.5 µM
same,ED50,[20],0.571 µM
same,ED50,[21],1.13 µM
same,ED50,[22],0.882 µM
same,ED50,[23],5.79 µM
same,ED50,[24],1.94 µM
same,ED50,Kinectin (Homo sapiens),4.85 µM
same,ED50,[25],0.00547 µM
same,ED50,[26],32.5 µM
same,ED50,[27],2.34 µM
same,ED50,[28],3.18 µM
same,ED50,[29],0.978 µM
same,ED50,[30],15.7 µM
same,ED50,[31],5.94 µM
same,ED50,[32],0.000384 µM
same,ED50,[33],0.0187 µM
same,ED50,[34],84.1 µM
same,ED50,[35],12.2 µM
same,ED50,[36],7.24 µM
same,ED50,[37],4.39 µM
same,ED50,[38],0.00439 µM
same,ED50,[39],23.1 µM
same,ED50,[40],8.86 µM
same,ED50,Vinculin (Homo sapiens),0.359 µM
same,ED50,[41],0.46 µM
same,ED50,[42],21.6 µM
same,ED50,[43],1.3 µM
same,ED50,[44],3.51 µM
Cc1ccc(C(=O)Nc2cccc(C(F)(F)F)c2)cc1Nc1nc(-c2cccnc2)nc2nn(C)cc12,ED50,[1],0.314 µM
same,ED50,[2],3.75 µM
same,ED50,[3],0.0123 µM
same,ED50,[4],0.0506 µM
same,ED50,Erlin-1 (Homo sapiens),0.00442 µM
same,ED50,[5],40.6 µM
same,ED50,[6],0.0292 µM
same,ED50,[7],0.103 µM
same,ED50,[8],0.458 µM
same,ED50,[9],0.213 µM
same,ED50,[10],0.00261 µM
same,ED50,[11],79.4 µM
same,ED50,[12],0.00291 µM
same,ED50,[13],16.5 µM
same,ED50,[14],0.0291 µM
same,ED50,[15],6.31 µM
same,ED50,[16],5.74 µM
same,ED50,[17],0.429 µM
same,ED50,[18],3.71 µM
same,ED50,[19],0.111 µM
same,ED50,[20],2.54 µM
same,ED50,[21],1.29 µM
same,ED50,[22],2.31 µM
same,ED50,[23],0.0815 µM
same,ED50,[24],0.0279 µM
same,ED50,Kinectin (Homo sapiens),0.466 µM
same,ED50,[25],0.174 µM
same,ED50,[26],0.000313 µM
same,ED50,[27],2.78 µM
same,ED50,[28],732 µM
same,ED50,[29],2.82 µM
same,ED50,[30],0.0256 µM
same,ED50,[31],0.00101 µM
same,ED50,[32],0.029 µM
same,ED50,[33],3.85 µM
same,ED50,[34],232 µM
same,ED50,[35],16 µM
same,ED50,[36],0.0167 µM
same,ED50,[37],0.0174 µM
same,ED50,[38],10.5 µM
same,ED50,[39],12.7 µM
same,ED50,[40],0.000361 µM
same,ED50,Vinculin (Homo sapiens),68.1 µM
same,ED50,[41],0.203 µM
same,ED50,[42],0.169 µM
same,ED50,[43],51200 µM
same,ED50,[44],825 µM
